Laboratory results published in publication PMC9083324, “Identifying Acute Cardiac Hazard in Early Drug Discovery Using a Calcium Transient High-Throughput Assay in Human-Induced Pluripotent Stem Cell-Derived Cardiomyocytes” (Frontiers in Physiology, 2022).
Values belong to the compound of their own block, whether it stands above or below them.

Tests used:
[1] = system: hiPSC-CMs (iCell Cardiomyocytes^2); assay: Ca2+ transient assay (CTCM) with acute cardiac hazard scoring in hiPSC-CMs; settings: for incidence of EADs / prolongation of CTD90: 3 nM
Protocol: Cells were pre-plated and seeded in fibronectin-coated 96-well plates at a density suited to form a monolayer and maintained in culture in a stage incubator (37°C, 5% CO2) according to the instructions of the cell provider. […] The beating monolayer was taken from frozen vials iCell Cardiomyocytes^2 (≈5 million cells/vial), which were plated onto three 96-well plates (≈50K/well).
Cells from these lot numbers were from the same donor (Apparently healthy normal, age <18) (according to FUJIFILM Cellular Dynamics).
On the day of the experiment, the culture medium in the 96-well plates containing the monolayers of hiPSC-CMs was replaced with Tyrode’s solution (Sigma, No. T2397) supplemented with 10 mM HEPES together with KCl to yield isokalemic (4.2 mM K^+) conditions.
The Ca^2+-sensitive fluorescence dye Cal-520™ AM (Cat. no.21131; AAT Bioquest) was used to capture the intracellular Ca^2+ transients in hiPSC-CMs. […] Briefly, Cal-520 was incubated for 70 min followed by a wash-out with supplemented Tyrode’s solution and a 30-min recovery before starting the experiments at 37°C. […] Compounds were added automatically using the Functional Drug Screen System (FDSS/µCell; Hamamatsu, Japan) head stage by adding 100 µl of the 2-fold concentrated compound solution to wells with hiPSC-CMs already containing a volume of 100 µl of the experimental solution, reaching the final intended test concentration in 0.1% DMSO.
The spontaneous beating activity of hiPSC-CMs was assessed through measurement of the Ca^2+ fluorescence signal integrated over the whole well. Ten minutes before starting the recordings, the experimental plates were put into the FDSS system for stabilization and a baseline recording was captured for 4 min followed by compound addition. The effect of the compounds was recorded around 30 min after compound addition. The Ca^2+ transient signals were sampled every 16 ms (frame rate of 62.5 Hz) in hiPSC-CMs maintained at 37°C during the acquisition time. […] In addition, beat rate (BR = peak count/min) and amplitude (amp = difference between max. and min of every beat) were measured, and incidence of cellular arrhythmias, e.g., EAD-like activity (considered a surrogate of TdP), cessation of beating (∼ stop beating), and below beating below quantification level (caused by low amplitude of the Ca^2+ transient or by ectopic beat: BBQL) were also recorded (Figures 1B,C).
For all individual experiments, delta percent (Δ%) at 30 min with respect to the baseline value was calculated [e.g., ∆% for CTD90 = (CTD90 30 min-CTD90 0 min)/CTD90 0 min) × 100].
TIs indicate an interval where, with a certain confidence level (1- α = 0.95), a specified proportion (p = 0.90) of a sampled population falls. […] These ΔΔ% net effects were the values obtained after normalization for baseline (Δ% vs. baseline) per well and the aggregated compound-treated wells are vehicle corrected by subtraction with the aggregated Δ% of the corresponding DMSO wells from the same plate [e.g., ΔΔ% = median Δ% drug - median Δ% DMSO]. The categorization was made first for each concentration and then aggregated per compound and test site. […] Similarly, a compound was categorized as decreased if it was in a category “decreased” in at least one of the four concentrations.
The cut-off values are net changes (ΔΔ% changes vs. baseline and vehicle), which are based on the statistical tolerance intervals (TIs) (Δ% changes vs. baseline). TIs indicate an interval where, with a certain confidence level, a specified proportion of a sampled population falls.

[2] = system: hiPSC-CMs (iCell Cardiomyocytes); assay: Ca2+ transient assay (CTCM), lot-to-lot comparison in iCell Cardiomyocytes (non-square cells, Lot 103674); assay type: cell-based, human
Protocol: To investigate lot-to-lot variability in hiPSC-CMs, we tested 19 drugs with known clinical cardiac risk in other lots of iCell Cardiomyocytes^2. Fifty-five reference drugs were tested in iCell Cardiomyocytes^2 -Lot12012, 18 reference drugs were tested in iCell Cardiomyocytes^2 (Lot105091), and 18 reference drugs were tested in iCell Cardiomyocytes (Lot103674) (nonsquare cells).

IKr = system: IKr; design: method as in Liu et al., 2010; settings: ref Liu et al., 2010; cited from earlier work
IKs = system: IKs; design: method as in Liu et al., 2010; settings: ref Liu et al., 2010; cited from earlier work
[3] = similar among the iCell Cardiomyocytes^2 and iCell Cardiomyocytes lots
[4] = 3 nM (2-fold fCmax), n = 131 studies
[5] = updated scoring: 10 points for decrease in beat rate by ≥ −30%
[6] = over the tested concentrations (Figure 3)

- hazard score [1, 3]: no hazard
SMILES: CC(C)NCC(O)COc1ccc(CC(N)=O)cc1 (stereo not drawn) [Atenolol]

SMILES: [Ba+2].[Cl-].[Cl-] [BaCl2]
- effect on hiPSC-CMs (detection in the assay) ([1]; concentration not given): no effect

- hazard score [1, 3]: no hazard
SMILES: C[C@H](CS)C(=O)N1CCC[C@H]1C(=O)O [Captopril]

- hazard score ([1]; 1 µM (16-fold the fCmax), numerous studies): no hazard
SMILES: O=C(O)COCCN1CCN(C(c2ccccc2)c2ccc(Cl)cc2)CC1 (stereo not drawn) [Cetirizine]

- share of studies identified as high (red color) hazard score [1, 4]: 21%
- share of studies identified as very high (black color) hazard score [1, 4]: 71%
- share of studies identified as yellow hazard score [1, 4]: 8%
SMILES: CN(CCOc1ccc(NS(C)(=O)=O)cc1)CCc1ccc(NS(C)(=O)=O)cc1 [Dofetilide]
- incidence of EADs ([2]; 3 nM, iCell Cardiomyocytes): 65%
- prolongation of CTD90 ([2]; 3 nM, lot105091 as printed (n = 20)): 234%
- incidence of EADs ([1]; first iCell Cardiomyocytes^2 lot (12,012)): 63%
- prolongation of CTD90 ([1]; lot 10,591 (n = 28)): 330%
- prolongation of CTD90 ([1]; lot 12,012 (n = 144)): 305%
- incidence of EADs ([1]; second iCell Cardiomyocytes^2 lot): 71%

- hazard score [1, 3]: no hazard
SMILES: CC(C)(C)c1ccc(C(=O)CCCN2CCC(OC(c3ccccc3)c3ccccc3)CC2)cc1 [Ebastine]

- effect on CTD90 ([1]; concentration not given): shortened
SMILES: O=C(Nc1ccc(Oc2ccccc2)cc1)c1cccc([N+](=O)[O-])c1 [ICA-105574]

SMILES: CC(C)NCC(O)c1ccc(O)c(O)c1 (stereo not drawn) [Isoproterenol]
- share of studies identified within the low and high hazard zones ([1]; 100 nM (63-fold fCmax), n = 143 studies): 92%

- hazard score [1, 5]: low
SMILES: COc1cc2c(cc1OC)CC(=O)N(CCCN(C)C[C@H]1Cc3cc(OC)c(OC)cc31)CC2 [Ivabradine]

- effect on hiPSC-CMs (detection in the assay) ([1]; concentration not given): not detected
SMILES: CC(C)(Oc1ccc(Cl)cc1)C(=O)NC1C2CC3CC1CC(NS(C)(=O)=O)(C3)C2 (stereo not drawn) [JNJ-303]

- cessation of beating ([1]; 100 µM = 67x fCmax): some cessation of beating
- hazard score ([1]; 100 µM = 67x fCmax): Red
SMILES: Cc1cccc(C)c1OCC(C)N (stereo not drawn) [Mexiletine]

- share of studies identified within the low and high hazard zones ([1]; 300 nM (15-fold fCmax), n = 124 studies): 95%
SMILES: COCCOC(=O)C1=C(C)NC(C)=C(C(=O)OC(C)C)C1c1cccc([N+](=O)[O-])c1 (stereo not drawn) [Nimodipine]

SMILES: Cc1cc2c(s1)Nc1ccccc1N=C2N1CCN(C)CC1 [Olanzapine]
- hazard score ([1]; highest tested concentration 100 nM (around fCmax)): not found to be with any hazard level

- hazard score [1, 6]: Green
SMILES: O=C1NC(=O)C(c2ccccc2)(c2ccccc2)N1 [Phenytoin]

- hazard score [1, 6]: Green
SMILES: CCC1(c2ccccc2)C(=O)NCNC1=O [Primidone]

SMILES: O=C(c1ccc(OCCN2CCCCC2)cc1)c1c(-c2ccc(O)cc2)sc2cc(O)ccc12 [Raloxifene]
- IC50 (IKr): 1100 nM
- IC50 (IKs): 4800 nM
- hazard score ([1]; at >2000 folds of fCmax): red
- hazard score ([1]; at ∼700–800 folds fCmax): green

SMILES: CC(C)NCC(O)c1ccc(NS(C)(=O)=O)cc1 (stereo not drawn) [Sotalol]
- EAD incidence compared to the two lots of iCell-Cardiomyocytes^2 (3 and 10 µM) ([2]; iCell Cardiomyocytes, 10 µM): much higher

- hazard score [1, 5]: low
SMILES: Nc1ncnc2c1ncn2[C@@H]1O[C@H](CO)[C@@H](O)[C@H]1O [adenosine]

- hazard score [1, 5]: low
SMILES: C[N+](C)(C)CCOC(N)=O [carbachol]

- cessation of beating ([1]; concentration not given): caused cessation of beating
- effect on CTD90 ([1]; concentration not given): slightly shortened
SMILES: CC(C)(C)c1ccc(C(O)CCCN2CCC(C(O)(c3ccccc3)c3ccccc3)CC2)cc1 (stereo not drawn) [terfenadine]
